PMC8550792, “Evolution of kinase polypharmacology across HSP90 drug discovery” (Cell Chemical Biology, 2021)

Legend:
Test in all cases: biochemical
Format in all cases: biochemical
[1] = target: T1, 382 unique human kinases (Homo sapiens, UniProt Q8IVH8); conditions: kinase GLK/MAP4K3, compound 10 uM; for remaining activity at 10 µM: read-out: % Enzyme Activity (relative to DMSO controls)
T1 construct: purchased Reaction Biology (HotSpot contract assay)
T1 sequence (Q8IVH8 1-894): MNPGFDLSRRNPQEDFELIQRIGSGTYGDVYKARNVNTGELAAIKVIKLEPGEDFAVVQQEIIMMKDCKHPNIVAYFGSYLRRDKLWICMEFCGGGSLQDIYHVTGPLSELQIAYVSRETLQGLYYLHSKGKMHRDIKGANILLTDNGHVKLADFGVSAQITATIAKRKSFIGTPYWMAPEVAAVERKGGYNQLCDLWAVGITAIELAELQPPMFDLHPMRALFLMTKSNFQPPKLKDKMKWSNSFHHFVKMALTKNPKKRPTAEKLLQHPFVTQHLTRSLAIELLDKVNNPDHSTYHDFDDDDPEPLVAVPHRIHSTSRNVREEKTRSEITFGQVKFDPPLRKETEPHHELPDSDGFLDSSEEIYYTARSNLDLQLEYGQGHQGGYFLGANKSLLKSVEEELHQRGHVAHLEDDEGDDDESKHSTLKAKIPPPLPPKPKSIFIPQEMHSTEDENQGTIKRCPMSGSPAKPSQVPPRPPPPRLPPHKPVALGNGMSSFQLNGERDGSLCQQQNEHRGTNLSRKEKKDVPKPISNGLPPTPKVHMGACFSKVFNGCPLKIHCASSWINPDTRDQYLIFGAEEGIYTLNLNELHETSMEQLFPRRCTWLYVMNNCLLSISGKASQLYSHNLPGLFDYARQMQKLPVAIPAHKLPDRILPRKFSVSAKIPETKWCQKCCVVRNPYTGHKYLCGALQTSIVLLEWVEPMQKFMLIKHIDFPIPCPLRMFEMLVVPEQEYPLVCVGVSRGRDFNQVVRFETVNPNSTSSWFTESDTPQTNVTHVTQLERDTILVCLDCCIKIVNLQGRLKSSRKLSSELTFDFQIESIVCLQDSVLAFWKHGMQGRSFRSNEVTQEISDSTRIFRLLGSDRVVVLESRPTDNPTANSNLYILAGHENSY

[2] = target: T2, 382 unique human kinases (Homo sapiens, UniProt P42680); conditions: TEC, 10 uM; for remaining activity at 10 µM: read-out: % Enzyme Activity (relative to DMSO controls)
T2 construct: purchased Reaction Biology (HotSpot contract assay)
T2 sequence (P42680 1-631): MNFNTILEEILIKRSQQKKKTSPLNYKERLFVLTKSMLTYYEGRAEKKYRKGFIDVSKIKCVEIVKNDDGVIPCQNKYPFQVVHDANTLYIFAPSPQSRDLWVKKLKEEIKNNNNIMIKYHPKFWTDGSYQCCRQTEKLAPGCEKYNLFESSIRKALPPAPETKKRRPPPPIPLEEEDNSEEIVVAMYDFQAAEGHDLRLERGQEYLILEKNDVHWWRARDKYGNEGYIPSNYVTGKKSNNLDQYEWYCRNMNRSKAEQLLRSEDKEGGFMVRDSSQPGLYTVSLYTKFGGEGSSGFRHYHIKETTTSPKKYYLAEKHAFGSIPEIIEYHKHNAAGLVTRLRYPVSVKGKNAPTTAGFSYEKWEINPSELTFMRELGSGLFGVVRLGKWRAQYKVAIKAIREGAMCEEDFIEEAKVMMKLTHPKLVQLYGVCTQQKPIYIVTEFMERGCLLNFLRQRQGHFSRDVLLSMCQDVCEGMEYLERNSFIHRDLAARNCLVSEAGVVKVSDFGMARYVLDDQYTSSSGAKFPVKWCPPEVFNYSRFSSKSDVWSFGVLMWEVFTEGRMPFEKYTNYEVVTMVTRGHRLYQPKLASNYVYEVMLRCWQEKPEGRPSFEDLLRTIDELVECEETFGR

[3] = target: T3, 382 unique human kinases (Homo sapiens, UniProt Q86UX6); conditions: STK32C/YANK3, 10 uM; for remaining activity at 10 µM: read-out: % Enzyme Activity (relative to DMSO controls)
T3 construct: purchased Reaction Biology (HotSpot contract assay)

[4] = target: T4, 382 unique human kinases (Homo sapiens, UniProt Q12851); conditions: GCK/MAP4K2, 10 uM; for remaining activity at 10 µM: read-out: % Enzyme Activity (relative to DMSO controls)
T4 construct: purchased Reaction Biology (HotSpot contract assay)
T4 sequence (Q12851 1-820): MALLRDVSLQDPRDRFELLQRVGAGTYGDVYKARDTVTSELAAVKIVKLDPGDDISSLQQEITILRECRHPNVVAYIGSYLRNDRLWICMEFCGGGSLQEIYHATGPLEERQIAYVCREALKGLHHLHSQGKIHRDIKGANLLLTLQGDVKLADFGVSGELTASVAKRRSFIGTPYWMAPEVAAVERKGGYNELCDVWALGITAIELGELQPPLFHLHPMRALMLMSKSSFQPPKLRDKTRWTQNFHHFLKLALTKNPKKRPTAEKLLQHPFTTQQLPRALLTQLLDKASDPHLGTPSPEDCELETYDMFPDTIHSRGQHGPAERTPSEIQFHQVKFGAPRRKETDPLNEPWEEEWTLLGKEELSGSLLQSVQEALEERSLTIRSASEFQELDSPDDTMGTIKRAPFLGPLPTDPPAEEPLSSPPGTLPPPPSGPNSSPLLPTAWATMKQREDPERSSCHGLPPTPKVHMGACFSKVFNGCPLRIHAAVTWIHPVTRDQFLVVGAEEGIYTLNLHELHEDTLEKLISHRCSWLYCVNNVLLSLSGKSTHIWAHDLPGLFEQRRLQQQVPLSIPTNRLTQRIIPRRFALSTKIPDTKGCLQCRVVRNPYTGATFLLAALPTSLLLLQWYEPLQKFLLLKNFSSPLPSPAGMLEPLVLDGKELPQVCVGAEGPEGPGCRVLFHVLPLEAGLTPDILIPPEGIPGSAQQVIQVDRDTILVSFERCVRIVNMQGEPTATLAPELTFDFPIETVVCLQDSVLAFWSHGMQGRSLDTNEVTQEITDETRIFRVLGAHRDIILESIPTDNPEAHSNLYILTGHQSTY

[5] = target: T5, 382 unique human kinases (Homo sapiens, UniProt Q9BXA7); conditions: STK22D/TSSK1, 10 uM; for remaining activity at 10 µM: read-out: % Enzyme Activity (relative to DMSO controls)
T5 construct: purchased Reaction Biology (HotSpot contract assay)
T5 sequence (Q9BXA7 1-367): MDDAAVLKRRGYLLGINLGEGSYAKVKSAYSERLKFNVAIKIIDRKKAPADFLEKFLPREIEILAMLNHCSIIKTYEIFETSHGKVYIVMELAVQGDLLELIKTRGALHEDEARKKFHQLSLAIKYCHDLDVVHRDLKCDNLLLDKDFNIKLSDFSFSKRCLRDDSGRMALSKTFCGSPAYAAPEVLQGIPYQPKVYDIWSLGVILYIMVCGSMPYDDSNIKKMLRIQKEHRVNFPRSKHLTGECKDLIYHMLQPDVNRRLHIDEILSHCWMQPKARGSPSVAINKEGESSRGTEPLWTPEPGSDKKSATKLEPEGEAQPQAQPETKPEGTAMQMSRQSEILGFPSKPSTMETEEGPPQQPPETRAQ

[6] = target: T6, 382 unique human kinases (Homo sapiens, UniProt P07949, R749T); conditions: RET (R749T), 10 uM; for remaining activity at 10 µM: read-out: % Enzyme Activity (relative to DMSO controls)
T6 construct: purchased Reaction Biology (HotSpot contract assay)
T6 sequence (P07949 29-1114 R749T): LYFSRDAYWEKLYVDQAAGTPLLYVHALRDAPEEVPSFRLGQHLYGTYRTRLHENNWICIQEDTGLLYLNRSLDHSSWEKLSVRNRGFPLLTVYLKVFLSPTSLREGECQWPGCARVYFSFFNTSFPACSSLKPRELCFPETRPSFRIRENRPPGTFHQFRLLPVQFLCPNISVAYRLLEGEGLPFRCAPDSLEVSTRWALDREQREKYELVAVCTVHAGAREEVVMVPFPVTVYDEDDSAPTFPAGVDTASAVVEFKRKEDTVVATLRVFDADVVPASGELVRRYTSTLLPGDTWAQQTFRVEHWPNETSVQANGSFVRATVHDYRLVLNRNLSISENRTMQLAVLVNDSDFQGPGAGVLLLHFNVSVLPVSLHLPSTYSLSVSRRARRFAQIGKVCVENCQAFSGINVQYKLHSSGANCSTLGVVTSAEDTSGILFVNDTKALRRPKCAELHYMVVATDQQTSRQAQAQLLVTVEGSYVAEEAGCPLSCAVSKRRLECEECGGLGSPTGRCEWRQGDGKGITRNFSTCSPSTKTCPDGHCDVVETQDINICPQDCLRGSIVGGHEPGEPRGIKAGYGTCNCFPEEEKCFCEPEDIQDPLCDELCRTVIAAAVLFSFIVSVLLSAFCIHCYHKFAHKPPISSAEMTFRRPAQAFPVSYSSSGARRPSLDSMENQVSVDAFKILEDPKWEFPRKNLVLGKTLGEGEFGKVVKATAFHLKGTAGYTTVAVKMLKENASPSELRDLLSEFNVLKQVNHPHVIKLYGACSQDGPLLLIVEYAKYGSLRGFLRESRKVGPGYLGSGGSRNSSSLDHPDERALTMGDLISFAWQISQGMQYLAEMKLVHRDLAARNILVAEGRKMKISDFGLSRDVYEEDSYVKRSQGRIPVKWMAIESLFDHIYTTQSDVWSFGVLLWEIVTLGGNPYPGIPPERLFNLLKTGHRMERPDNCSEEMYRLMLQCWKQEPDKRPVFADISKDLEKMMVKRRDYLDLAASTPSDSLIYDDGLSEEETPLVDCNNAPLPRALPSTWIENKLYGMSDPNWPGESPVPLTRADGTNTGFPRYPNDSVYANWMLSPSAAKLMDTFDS

T3 sequence (Q86UX6 whole entry): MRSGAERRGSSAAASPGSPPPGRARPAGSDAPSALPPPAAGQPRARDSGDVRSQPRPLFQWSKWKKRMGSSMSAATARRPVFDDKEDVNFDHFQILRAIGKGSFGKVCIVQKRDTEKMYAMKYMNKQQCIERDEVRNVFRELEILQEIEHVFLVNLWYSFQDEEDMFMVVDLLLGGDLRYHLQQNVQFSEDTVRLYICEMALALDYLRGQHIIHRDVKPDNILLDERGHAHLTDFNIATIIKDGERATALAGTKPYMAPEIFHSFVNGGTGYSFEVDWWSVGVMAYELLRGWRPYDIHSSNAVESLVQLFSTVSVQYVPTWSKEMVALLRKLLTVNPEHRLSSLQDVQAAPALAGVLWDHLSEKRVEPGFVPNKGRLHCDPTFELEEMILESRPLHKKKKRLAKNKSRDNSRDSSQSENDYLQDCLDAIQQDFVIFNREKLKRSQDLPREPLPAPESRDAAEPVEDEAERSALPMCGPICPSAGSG

SMILES	remaining activity at 10 µM [1]	remaining activity at 10 µM [2]	remaining activity at 10 µM [3]	remaining activity at 10 µM [4]	remaining activity at 10 µM [5]	% Enzyme Activity (relative to DMSO controls) [6]	remaining activity at 10 µM [6]	% Enzyme Activity (relative to DMSO controls) [1]	% Enzyme Activity (relative to DMSO controls) [2]	% Enzyme Activity (relative to DMSO controls) [3]	% Enzyme Activity (relative to DMSO controls) [4]	% Enzyme Activity (relative to DMSO controls) [5]
CC(C)c1cc(-c2n[nH]c(=O)n2-c2ccc3c(ccn3C)c2)c(O)cc1O [Ganetespib (STA9090)]	89.8%	59.7%	109%	76%	75.4%	–	–	–	–	–	–	–
CCNC(=O)c1noc(-c2cc(C(C)C)c(O)cc2O)c1-c1ccc(CN2CCOCC2)cc1 [Luminespib]	–	–	–	–	–	97.79%	98.4%	–	–	–	–	–
CCNC(=O)c1noc(-c2cc(C(C)C)c(O)cc2O)c1-c1ccc(CN2CCOCC2)cc1 [Luminespib (AUY-922)]	87.1%	97.9%	69.9%	97.2%	99.3%	–	–	86.46%	96.94%	69.42%	94.14%	98.29%
CC(C)c1cc(-c2n[nH]c(=O)n2-c2ccc3c(ccn3C)c2)c(O)cc1O [Ganetespib]	–	–	–	–	–	–	106%	–	–	–	–	–
